# According to the supplement of paper PMC4862054:
# Tests used:
# Settings in all cases: 72 h
# DU-4475 [1] = test system: DU-4475
# Procedure, shortened: (§1)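 Compound dissolved in 5 µl medium was placed in 384-well plates before 20 µl of breast cancer cell suspension was added, and the plates were incubated for 72 h. Cells then received 2.5 µl CellTiter-Blue for 2 h at 37 °C, and fluorescence was read at 560/590 nm. EC50 values come from percent-inhibition dose-response fits that were censored at the highest concentration, with plates normalised to vehicle and a positive kill control and rows with a zero drug sensitivity score excluded.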
# CAL-85-1 [2] = test system: CAL-85-1
# Procedure, shortened: as §1
# MDA-MB-453 [3] = test system: MDA-MB-453
# Procedure, shortened: as §1
# CAL-148 [4] = test system: CAL-148
# Procedure, shortened: as §1
# HDQ-P1 [5] = test system: HDQ-P1
# Procedure, shortened: as §1
# CAL-51 [6] = test system: CAL-51
# Procedure, shortened: as §1
# HCC1937 [7] = test system: HCC1937
# Procedure, shortened: as §1
# CAL-120 [8] = test system: CAL-120
# Procedure, shortened: as §1
# MDA-MB-468 [9] = test system: MDA-MB-468
# Procedure, shortened: as §1
# MFM-223 [10] = test system: MFM-223
# Procedure, shortened: as §1
# BT-549 [11] = test system: BT-549
# Procedure, shortened: as §1
# BT-474 [12] = test system: BT-474
# Procedure, shortened: as §1
# Hs578T [13] = test system: Hs578T
# Procedure, shortened: as §1
# SK-BR-3 [14] = test system: SK-BR-3
# Procedure, shortened: as §1
# MDA-MB-436 [15] = test system: MDA-MB-436
# Procedure, shortened: as §1
# MDA-MB-231 [16] = test system: MDA-MB-231
# Procedure, shortened: as §1
# HCC1143 [17] = test system: HCC1143
# Procedure, shortened: as §1
# DU-4475 [18] = test system: DU-4475; remark: listed apart in the source
# Method: (§2)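 Drug sensitivity and resistance testing (DSRT) of breast cancer cell lines in 384-well plates, 5 concentrations in 10-fold dilutions over a compound-specific 10,000-fold range. After 72 h, cytotoxicity was read by CellTox Green fluorescence and viability by CellTiter-Glo luminescence (multiplexed), normalised to DMSO and benzethonium chloride controls. EC50 is the inflection point of the fitted dose-response curve (bottom asymptote free, so it can be relative for partial curves) and is censored at the highest tested concentration. Rows with DSS 0 (no meaningful response) were excluded.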
# HCC1937 [19] = test system: HCC1937; remark: listed apart in the source
# Method: as §2
# CAL-120 [20] = test system: CAL-120; remark: listed apart in the source
# Method: as §2
# MDA-MB-468 [21] = test system: MDA-MB-468; remark: listed apart in the source
# Method: as §2
# CAL-85-1 [22] = test system: CAL-85-1; remark: listed apart in the source
# Method: as §2
# BT-474 [23] = test system: BT-474; remark: listed apart in the source
# Method: as §2
# CAL-148 [24] = test system: CAL-148; remark: listed apart in the source
# Method: as §2
# Hs578T [25] = test system: Hs578T; remark: listed apart in the source
# Method: as §2
# MDA-MB-231 [26] = test system: MDA-MB-231; remark: listed apart in the source
# Method: as §2
# MCF-10A [27] = test system: MCF-10A
# Method: as §2
# HCC1143 [28] = test system: HCC1143; remark: listed apart in the source
# Method: as §2
# HDQ-P1 [29] = test system: HDQ-P1; remark: listed apart in the source
# Method: as §2
# CAL-51 [30] = test system: CAL-51; remark: listed apart in the source
# Method: as §2
# DU-4475 [31] = test system: DU-4475; remark: listed apart in the source
# Procedure, shortened: (§3)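 Two sequential readouts followed a 72 h incubation of breast cancer cell lines with compound at 5 concentrations in 10-fold steps over a compound-specific 10,000-fold range: CellTox Green fluorescence (485/520 nm) for cell death, then CellTiter-Glo luminescence, after 10 min at room temperature, for viability. Each plate was normalised to 0.1 % DMSO and a positive kill control. Dose-response curves were fitted for EC50, censored at the top concentration.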
# HCC1937 [32] = test system: HCC1937; remark: listed apart in the source
# Procedure, shortened: as §3
# CAL-120 [33] = test system: CAL-120; remark: listed apart in the source
# Procedure, shortened: as §3
# MFM-223 [34] = test system: MFM-223; remark: listed apart in the source
# Procedure, shortened: as §3
# BT-549 [35] = test system: BT-549; remark: listed apart in the source
# Procedure, shortened: as §3
# CAL-85-1 [36] = test system: CAL-85-1; remark: listed apart in the source
# Procedure, shortened: as §3
# MDA-MB-453 [37] = test system: MDA-MB-453; remark: listed apart in the source
# Procedure, shortened: as §3
# CAL-148 [38] = test system: CAL-148; remark: listed apart in the source
# Procedure, shortened: as §3
# Hs578T [39] = test system: Hs578T; remark: listed apart in the source
# Procedure, shortened: as §3
# HCC1599 [40] = test system: HCC1599
# Procedure, shortened: as §3
# SK-BR-3 [41] = test system: SK-BR-3; remark: listed apart in the source
# Procedure, shortened: as §3
# MDA-MB-436 [42] = test system: MDA-MB-436; remark: listed apart in the source
# Procedure, shortened: as §3
# MDA-MB-231 [43] = test system: MDA-MB-231; remark: listed apart in the source
# Procedure, shortened: as §3
# MCF-10A [44] = test system: MCF-10A; remark: listed apart in the source
# Procedure, shortened: as §3
# HCC1143 [45] = test system: HCC1143; remark: listed apart in the source
# Procedure, shortened: as §3
# HDQ-P1 [46] = test system: HDQ-P1; remark: listed apart in the source
# Procedure, shortened: as §3
# HCC1599 [47] = test system: HCC1599; remark: listed apart in the source
# Procedure, shortened: as §1
# MFM-223 [48] = test system: MFM-223; remark: listed apart in the source
# Method: as §2
# BT-549 [49] = test system: BT-549; remark: listed apart in the source
# Method: as §2
smiles,measurement,setting,value
Cc1ccc(C(=O)N(CCCN)[C@@H](c2oc3cc(Cl)ccc3c(=O)c2Cc2ccccc2)C(C)C)cc1,"EC50, CellTiter-Blue viability",DU-4475 [1],8.62 nM
same,"EC50, CellTiter-Blue viability",CAL-85-1 [2],4.95 nM
same,"EC50, CellTiter-Blue viability",MDA-MB-453 [3],5.76 nM
same,"EC50, CellTiter-Blue viability",CAL-148 [4],5.81 nM
same,"EC50, CellTiter-Blue viability",HDQ-P1 [5],2.34 nM
same,"EC50, CellTiter-Blue viability",CAL-51 [6],6.53 nM
same,"EC50, CellTiter-Blue viability",HCC1937 [7],0.62 nM
same,"EC50, CellTiter-Blue viability",CAL-120 [8],0.57 nM
same,"EC50, CellTiter-Blue viability",MDA-MB-468 [9],1.88 nM
same,"EC50, CellTiter-Blue viability",MFM-223 [10],3.75 nM
same,"EC50, CellTiter-Blue viability",BT-549 [11],1.83 nM
same,"EC50, CellTiter-Blue viability",BT-474 [12],4.38 nM
same,"EC50, CellTiter-Blue viability",Hs578T [13],4.05 nM
same,"EC50, CellTiter-Blue viability",SK-BR-3 [14],0.74 nM
same,"EC50, CellTiter-Blue viability",MDA-MB-436 [15],2.55 nM
same,"EC50, CellTiter-Blue viability",MDA-MB-231 [16],0.34 nM
same,"EC50, CellTiter-Blue viability",HCC1143 [17],2.09 nM
CO[C@H]1/C=C\C=C(/C)C(=O)NC2=CC(=O)C(NCCN(C)C)=C(C[C@@H](C)C[C@H](OC)[C@H](O)[C@@H](C)/C=C(\C)[C@@H]1OC(N)=O)C2=O [Alvespimycin],"EC50, CellTiter-Blue viability",DU-4475 [1],15.3 nM
same,"EC50, CellTiter-Blue viability",CAL-85-1 [2],35.1 nM
same,"EC50, CellTiter-Blue viability",MDA-MB-453 [3],11.2 nM
same,"EC50, CellTiter-Blue viability",CAL-148 [4],27.6 nM
same,"EC50, CellTiter-Blue viability",HDQ-P1 [5],22.6 nM
same,"EC50, CellTiter-Blue viability",CAL-51 [6],53.3 nM
same,"EC50, CellTox Green",DU-4475 [18],26.6 nM
same,"EC50, CellTox Green",HCC1937 [19],781 nM
same,"EC50, CellTox Green",CAL-120 [20],> 1000 nM
same,"EC50, CellTox Green",MDA-MB-468 [21],682 nM
same,"EC50, CellTox Green",CAL-85-1 [22],187 nM
same,"EC50, CellTox Green",BT-474 [23],77.3 nM
same,"EC50, CellTox Green",CAL-148 [24],45 nM
same,"EC50, CellTox Green",Hs578T [25],242 nM
same,"EC50, CellTox Green",MDA-MB-231 [26],171 nM
same,"EC50, CellTox Green",MCF-10A [27],37.9 nM
same,"EC50, CellTox Green",HCC1143 [28],138 nM
same,"EC50, CellTox Green",HDQ-P1 [29],12.2 nM
same,"EC50, CellTox Green",CAL-51 [30],35.8 nM
same,"EC50, CellTiter-Glo",DU-4475 [31],34 nM
same,"EC50, CellTiter-Glo",HCC1937 [32],44.1 nM
same,"EC50, CellTiter-Glo",CAL-120 [33],46.2 nM
same,"EC50, CellTiter-Glo",MFM-223 [34],17.6 nM
same,"EC50, CellTiter-Glo",BT-549 [35],8.13 nM
same,"EC50, CellTiter-Glo",CAL-85-1 [36],41.8 nM
same,"EC50, CellTiter-Glo",MDA-MB-453 [37],19.8 nM
same,"EC50, CellTiter-Glo",CAL-148 [38],38.7 nM
same,"EC50, CellTiter-Glo",Hs578T [39],45.7 nM
same,"EC50, CellTiter-Glo",HCC1599 [40],91.5 nM
same,"EC50, CellTiter-Glo",SK-BR-3 [41],11 nM
same,"EC50, CellTiter-Glo",MDA-MB-436 [42],11.3 nM
same,"EC50, CellTiter-Glo",MDA-MB-231 [43],46.2 nM
same,"EC50, CellTiter-Glo",MCF-10A [44],40.8 nM
same,"EC50, CellTiter-Glo",HCC1143 [45],34.8 nM
same,"EC50, CellTiter-Glo",HDQ-P1 [46],30.2 nM
same,"EC50, CellTiter-Blue viability",HCC1937 [7],7.56 nM
same,"EC50, CellTiter-Blue viability",CAL-120 [8],27.4 nM
same,"EC50, CellTiter-Blue viability",MDA-MB-468 [9],60.5 nM
same,"EC50, CellTiter-Blue viability",MFM-223 [10],8.78 nM
same,"EC50, CellTiter-Blue viability",BT-549 [11],6.08 nM
same,"EC50, CellTiter-Blue viability",BT-474 [12],22.9 nM
same,"EC50, CellTiter-Blue viability",Hs578T [13],5.38 nM
same,"EC50, CellTiter-Blue viability",HCC1599 [47],17.4 nM
same,"EC50, CellTiter-Blue viability",SK-BR-3 [14],8.15 nM
same,"EC50, CellTiter-Blue viability",MDA-MB-436 [15],19.9 nM
same,"EC50, CellTiter-Blue viability",MDA-MB-231 [16],38.9 nM
same,"EC50, CellTiter-Blue viability",HCC1143 [17],26.2 nM
O=C(O)c1ccc(-c2c[nH]c3ncc(-c4ccccc4)cc23)cc1C1CCCC1,"EC50, CellTiter-Glo",Hs578T [39],> 10000 nM
same,"EC50, CellTiter-Glo",SK-BR-3 [41],> 10000 nM
Cn1c(Nc2ccc(C(F)(F)F)cc2)nc2cc(Oc3ccnc(-c4ncc(C(F)(F)F)[nH]4)c3)ccc21 [RAF265],"EC50, CellTiter-Blue viability",DU-4475 [1],328 nM
same,"EC50, CellTiter-Blue viability",HDQ-P1 [5],82.3 nM
same,"EC50, CellTiter-Blue viability",CAL-51 [6],915 nM
same,"EC50, CellTox Green",MFM-223 [48],600 nM
same,"EC50, CellTox Green",BT-549 [49],581 nM
same,"EC50, CellTox Green",CAL-85-1 [22],139 nM
same,"EC50, CellTiter-Glo",DU-4475 [31],193 nM
same,"EC50, CellTiter-Glo",HCC1937 [32],163 nM
same,"EC50, CellTiter-Glo",CAL-120 [33],97.2 nM
same,"EC50, CellTiter-Glo",MFM-223 [34],291 nM
same,"EC50, CellTiter-Glo",BT-549 [35],377 nM
same,"EC50, CellTiter-Glo",CAL-85-1 [36],827 nM
same,"EC50, CellTiter-Glo",Hs578T [39],72.4 nM
same,"EC50, CellTiter-Glo",MDA-MB-436 [42],137 nM
same,"EC50, CellTiter-Glo",HDQ-P1 [46],108 nM
same,"EC50, CellTiter-Blue viability",HCC1937 [7],99.1 nM
same,"EC50, CellTiter-Blue viability",CAL-120 [8],77.8 nM
same,"EC50, CellTiter-Blue viability",MFM-223 [10],673 nM
same,"EC50, CellTiter-Blue viability",BT-549 [11],4.14 nM
same,"EC50, CellTiter-Blue viability",Hs578T [13],196 nM
same,"EC50, CellTiter-Blue viability",MDA-MB-436 [15],30 nM
same,"EC50, CellTiter-Blue viability",MDA-MB-231 [16],141 nM
same,"EC50, CellTiter-Blue viability",HCC1143 [17],1.43 nM
